# Measured values taken from PubChem BioAssay (NCI).
#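 Where inhibition never reached the appropriate level, the endpoint shown equals the highest concentration tested. Otherwise, values were interpolated linearly from a five-concentration, 48-hour dose response in 96-well plates. GI50 marks 50% less growth. The concentration for full growth arrest is given as TGI.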
# How the values were obtained:
# Assay in all cases: NCI-60 cell line screen, 48 h
# [1] = test system: SF-295 CNS
# [2] = test system: A498 renal
# [3] = test system: RPMI-8226 leukemia
# [4] = test system: CCRF-CEM leukemia
# [5] = test system: SK-MEL-28 melanoma
# [6] = test system: UO-31 renal
# [7] = test system: OVCAR-5 ovarian
# [8] = test system: U251 CNS
# [9] = test system: BT-549 breast
# [10] = test system: SW-620 colon
# [11] = test system: OVCAR-8 ovarian
# [12] = test system: KM12 colon
# [13] = test system: NCI/ADR-RES ovarian
# [14] = test system: SK-MEL-5 melanoma
# [15] = test system: SN12C renal
# [16] = test system: DU-145 prostate
# [17] = test system: NCI-H460 lung
# [18] = test system: NCI-H522 lung
# [19] = test system: HCT-15 colon
# [20] = test system: SNB-75 CNS
# [21] = test system: PC-3 prostate
# [22] = test system: MDA-MB-435
# [23] = test system: SF-268 CNS
# [24] = test system: COLO 205 colon
# [25] = test system: SF-539 CNS
# [26] = test system: NCI-H226 lung
# [27] = test system: LOX IMVI melanoma
# [28] = test system: EKVX NSCLC
# [29] = test system: OVCAR-3 ovarian
# [30] = test system: HOP-92 NSCLC
# [31] = test system: K-562 leukemia
# [32] = test system: SR leukemia
# [33] = test system: CAKI-1 renal
# [34] = test system: HS 578T breast
# [35] = test system: SK-OV-3 ovarian
# [36] = test system: T-47D breast
# [37] = test system: UACC-62 melanoma
# [38] = test system: 786-0 renal
# [39] = test system: SNB-19 CNS
# [40] = test system: SK-MEL-2 melanoma
# [41] = test system: RXF 393 renal
# [42] = test system: HOP-62 NSCLC
# [43] = test system: HL-60(TB) leukemia
# [44] = test system: MDA-MB-231 breast
# [45] = test system: TK-10 renal
# [46] = test system: HCT-116 colon
# [47] = test system: MOLT-4 leukemia
# [48] = test system: NCI-H23 lung
# [49] = test system: HT29 colon
# [50] = test system: ACHN renal
# [51] = test system: MCF7 breast
# [52] = test system: HCC-2998 colon
# [53] = test system: MALME-3M melanoma
# [54] = test system: A549 NSCLC
# [55] = test system: M14 melanoma
# [56] = test system: OVCAR-4 ovarian
# [57] = test system: UACC-257 melanoma
# [58] = test system: IGROV1 ovarian
# [59] = test system: MDA-N
smiles,measurement,setting,value
Cc1cc(CC(C)CC(C)(C)C)n(O)c(=O)c1 (stereo not drawn) (tested in a mixture with another compound),GI50,[1],447 nM
same,TGI,[1],18500 nM
same,GI50,[2],944 nM
same,TGI,[2],10300 nM
same,GI50,[3],365 nM
same,TGI,[3],8060 nM
same,GI50,[4],261 nM
same,TGI,[4],1300 nM
same,GI50,[5],548 nM
same,TGI,[5],> 63200 nM
same,GI50,[6],379 nM
same,TGI,[6],7010 nM
same,GI50,[7],689 nM
same,TGI,[7],> 58000 nM
same,GI50,[8],400 nM
same,TGI,[8],13900 nM
same,GI50,[9],351 nM
same,TGI,[9],3250 nM
same,GI50,[10],478 nM
same,TGI,[10],> 81100 nM
same,GI50,[11],410 nM
same,TGI,[11],> 100000 nM
same,GI50,[12],602 nM
same,TGI,[12],21300 nM
same,GI50,[13],373 nM
same,TGI,[13],4020 nM
same,GI50,[14],292 nM
same,TGI,[14],1010 nM
same,GI50,[15],468 nM
same,TGI,[15],32700 nM
same,GI50,[16],505 nM
same,TGI,[16],> 41300 nM
same,GI50,[17],331 nM
same,TGI,[17],10900 nM
same,GI50,[18],475 nM
same,TGI,[18],4230 nM
same,GI50,[19],459 nM
same,TGI,[19],> 100000 nM
same,GI50,[20],1610 nM
same,TGI,[20],61200 nM
same,GI50,[21],601 nM
same,TGI,[21],40000 nM
same,GI50,[22],559 nM
same,TGI,[22],24900 nM
same,GI50,[23],409 nM
same,TGI,[23],16100 nM
same,GI50,[24],13400 nM
same,TGI,[24],59600 nM
same,GI50,[25],390 nM
same,TGI,[25],13200 nM
same,GI50,[26],435 nM
same,TGI,[26],10400 nM
same,GI50,[27],312 nM
same,TGI,[27],10900 nM
same,GI50,[28],889 nM
same,TGI,[28],25400 nM
same,GI50,[29],745 nM
same,TGI,[29],18600 nM
same,GI50,[30],174 nM
same,TGI,[30],1880 nM
same,GI50,[31],258 nM
same,TGI,[31],15200 nM
same,GI50,[32],286 nM
same,TGI,[32],2970 nM
same,GI50,[33],1760 nM
same,TGI,[33],9820 nM
same,GI50,[34],8070 nM
same,TGI,[34],> 62100 nM
same,GI50,[35],1750 nM
same,TGI,[35],> 55300 nM
same,GI50,[36],725 nM
same,TGI,[36],> 43600 nM
same,GI50,[37],305 nM
same,TGI,[37],1080 nM
same,GI50,[38],1800 nM
same,TGI,[38],5700 nM
same,GI50,[39],519 nM
same,TGI,[39],> 100000 nM
same,GI50,[40],766 nM
same,TGI,[40],> 100000 nM
same,GI50,[41],372 nM
same,TGI,[41],6530 nM
same,GI50,[42],677 nM
same,TGI,[42],16100 nM
same,GI50,[43],189 nM
same,TGI,[43],525 nM
same,GI50,[44],450 nM
same,TGI,[44],> 48500 nM
same,GI50,[45],5090 nM
same,TGI,[45],> 74700 nM
same,GI50,[46],406 nM
same,TGI,[46],13200 nM
same,GI50,[47],246 nM
same,TGI,[47],714 nM
same,GI50,[48],559 nM
same,TGI,[48],22000 nM
same,GI50,[49],3910 nM
same,TGI,[49],17500 nM
same,GI50,[50],385 nM
same,TGI,[50],> 37600 nM
same,GI50,[51],401 nM
same,TGI,[51],> 43000 nM
same,GI50,[52],2600 nM
same,TGI,[52],17700 nM
same,GI50,[53],482 nM
same,TGI,[53],13000 nM
same,GI50,[54],500 nM
same,TGI,[54],> 49700 nM
same,GI50,[55],285 nM
same,TGI,[55],1160 nM
same,GI50,[56],358 nM
same,TGI,[56],> 84400 nM
same,GI50,[57],507 nM
same,TGI,[57],> 100000 nM
same,GI50,[58],464 nM
same,TGI,[58],16700 nM
COc1ccc2nc3cc([N+](=O)[O-])ccc3c(NCCCN(C)C)c2c1,GI50,[1],350 nM
same,TGI,[1],2390 nM
same,GI50,[2],1870 nM
same,TGI,[2],5720 nM
same,GI50,[3],38 nM
same,TGI,[3],437 nM
same,GI50,[4],557 nM
same,TGI,[4],4310 nM
same,GI50,[5],504 nM
same,TGI,[5],2870 nM
same,GI50,[6],1630 nM
same,TGI,[6],6100 nM
same,GI50,[7],768 nM
same,TGI,[7],4510 nM
same,GI50,[8],44.1 nM
same,TGI,[8],375 nM
same,GI50,[9],2650 nM
same,TGI,[9],5260 nM
same,GI50,[10],67 nM
same,TGI,[10],1390 nM
same,GI50,[11],89.5 nM
same,TGI,[11],1590 nM
same,GI50,[13],2460 nM
same,TGI,[13],14200 nM
same,GI50,[14],187 nM
same,TGI,[14],832 nM
same,GI50,[15],111 nM
same,TGI,[15],768 nM
same,GI50,[16],175 nM
same,TGI,[16],11900 nM
same,GI50,[17],40.9 nM
same,TGI,[17],1500 nM
same,GI50,[18],19.9 nM
same,TGI,[18],59.7 nM
same,GI50,[19],3460 nM
same,GI50,[20],310 nM
same,TGI,[20],1530 nM
same,TGI,[21],1550 nM
same,GI50,[22],247 nM
same,TGI,[22],1000 nM
same,GI50,[23],295 nM
same,TGI,[23],1740 nM
same,GI50,[24],221 nM
same,TGI,[24],2170 nM
same,GI50,[25],520 nM
same,TGI,[25],3190 nM
same,GI50,[26],251 nM
same,TGI,[26],2420 nM
same,GI50,[59],491 nM
same,TGI,[59],2000 nM
same,GI50,[27],249 nM
same,TGI,[27],1080 nM
same,GI50,[28],2250 nM
same,TGI,[28],7910 nM
same,GI50,[29],594 nM
same,TGI,[29],7860 nM
same,GI50,[30],149 nM
same,TGI,[30],651 nM
same,GI50,[31],36.1 nM
same,TGI,[31],183 nM
same,GI50,[32],79.4 nM
same,GI50,[33],1240 nM
same,TGI,[33],3830 nM
same,GI50,[34],372 nM
same,TGI,[34],4760 nM
same,GI50,[35],231 nM
same,TGI,[35],3130 nM
same,GI50,[37],384 nM
same,TGI,[37],1640 nM
same,GI50,[38],174 nM
same,TGI,[38],1280 nM
same,GI50,[39],299 nM
same,TGI,[39],2610 nM
same,GI50,[42],31.5 nM
same,TGI,[42],202 nM
same,GI50,[43],95.3 nM
same,GI50,[44],394 nM
same,TGI,[44],3450 nM
same,GI50,[46],36 nM
same,TGI,[46],1250 nM
same,GI50,[47],43.2 nM
same,TGI,[47],680 nM
same,GI50,[48],170 nM
same,TGI,[48],737 nM
same,GI50,[49],39.7 nM
same,TGI,[49],1120 nM
same,GI50,[50],418 nM
same,TGI,[50],3090 nM
same,GI50,[51],30.4 nM
same,TGI,[51],204 nM
same,GI50,[53],287 nM
same,TGI,[53],878 nM
same,GI50,[54],278 nM
same,TGI,[54],10100 nM
same,GI50,[55],176 nM
same,TGI,[55],412 nM
same,GI50,[56],95.9 nM
same,TGI,[56],539 nM
same,GI50,[57],1710 nM
same,TGI,[57],4410 nM
same,GI50,[58],363 nM
same,TGI,[58],3590 nM
